Results published in patent US11566007B2, “Ras inhibitors” (Revolution Medicines, Inc., priority 2019, dated 2023).

Columns and labels:
KRAS Q61H = KRAS Q61H (Homo sapiens (Human), UniProt P01116+P62937, Q61H); assay: Ras-Raf (BRAF RBD) disruption / FRET / MOA assay, KRAS Q61H; assay type: biochemical; conditions: Ras-Raf disruption/FRET/MOA assay; class symbols; read-out: KRAS Q61H FRET data IC50
Procedure, shortened: (§1)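 Compounds were tested as a 10-point 3-fold dilution series from 30 μM final for their ability to drive ternary complex formation between nucleotide-loaded Ras and cyclophilin A, displacing the BRAF RBD. After 3 h at 25° C., anti-His Eu-W1024 (10 nM) and anti-GST allophycocyanin (50 nM) were added for 1.5 h. A TR-FRET ratio decrease versus DMSO gave IC50.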

NRAS Q61K = NRAS Q61K (Homo sapiens (Human), UniProt P01111+P62937, Q61K); assay: Ras-Raf (BRAF RBD) disruption / FRET / MOA assay, NRAS Q61K; assay type: biochemical; conditions: NRAS Q61K; Ras-Raf disruption/FRET/MOA assay; read-out: IC50* NRAS Q61K FRET data
Sequence of NRAS Q61K (P01111 whole entry Q61K): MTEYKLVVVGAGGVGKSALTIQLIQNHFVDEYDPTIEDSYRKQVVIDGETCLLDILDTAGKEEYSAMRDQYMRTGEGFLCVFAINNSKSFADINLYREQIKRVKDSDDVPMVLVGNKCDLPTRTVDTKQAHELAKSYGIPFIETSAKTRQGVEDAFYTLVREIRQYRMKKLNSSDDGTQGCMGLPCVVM
Sequence of NRAS Q61K (P62937 whole entry): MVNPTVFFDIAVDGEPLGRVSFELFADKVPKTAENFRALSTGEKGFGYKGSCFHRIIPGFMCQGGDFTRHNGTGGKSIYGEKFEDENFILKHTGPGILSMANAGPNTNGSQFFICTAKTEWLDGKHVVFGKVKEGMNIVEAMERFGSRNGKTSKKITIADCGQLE
Procedure, shortened: as §1

KRAS G12D = KRAS G12D (Homo sapiens (Human), UniProt P01116+P62937, G12D); assay: Ras-Raf (BRAF RBD) disruption / FRET / MOA assay, KRAS G12D; assay type: biochemical; conditions: Ras-Raf disruption/FRET/MOA assay; class symbols; read-out: KRAS G12D FRET data IC50
Sequence of KRAS G12D (P01116-2 other isoform, or with tags, fused parts or gaps G12D): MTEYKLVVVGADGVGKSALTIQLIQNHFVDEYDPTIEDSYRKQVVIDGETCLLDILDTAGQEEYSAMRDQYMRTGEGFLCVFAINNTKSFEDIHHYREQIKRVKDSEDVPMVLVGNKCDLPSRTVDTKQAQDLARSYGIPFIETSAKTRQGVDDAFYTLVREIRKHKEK
Sequence of KRAS G12D (P62937 whole entry): as the sequence (P62937 whole entry) above
Procedure, shortened: (§2)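 TR-FRET read-out: a drop in ratio relative to DMSO wells marks disruption of the Ras:RAF complex, reported as IC50. Compounds (3-fold series, 10 points, top 30 μM final) incubated 3 h at 25° C before Eu-anti-His 10 nM and APC-anti-GST 50 nM, 1.5 h more.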

KRAS G13D = KRAS G13D (Homo sapiens (Human), UniProt P01116+P62937, G13D); assay: Ras-Raf (BRAF RBD) disruption / FRET / MOA assay, KRAS G13D; assay type: biochemical; conditions: read-out: IC50* KRAS G13D FRET data
Sequence of KRAS G13D (P01116-2 other isoform, or with tags, fused parts or gaps G13D): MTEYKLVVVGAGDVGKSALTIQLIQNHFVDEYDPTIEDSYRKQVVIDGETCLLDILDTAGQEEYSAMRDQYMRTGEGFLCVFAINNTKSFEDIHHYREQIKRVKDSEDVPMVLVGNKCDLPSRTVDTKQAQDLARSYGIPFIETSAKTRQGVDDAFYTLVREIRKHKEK
Sequence of KRAS G13D (P62937 whole entry): as the sequence (P62937 whole entry) above
Procedure, shortened: as §2

KRAS WT = KRAS WT (Homo sapiens (Human), UniProt P01116+P62937); assay: Ras-Raf (BRAF RBD) disruption / FRET / MOA assay, KRAS WT; assay type: biochemical; conditions: read-out: IC50* KRAS WT FRET data
Sequence of KRAS WT (P01116-2 other isoform, or with tags, fused parts or gaps): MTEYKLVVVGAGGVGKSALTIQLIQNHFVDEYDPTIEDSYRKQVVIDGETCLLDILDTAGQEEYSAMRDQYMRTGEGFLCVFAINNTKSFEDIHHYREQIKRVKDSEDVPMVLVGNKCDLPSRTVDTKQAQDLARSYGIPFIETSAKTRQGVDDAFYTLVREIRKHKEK
Sequence of KRAS WT (P62937 whole entry): as the sequence (P62937 whole entry) above
Procedure, shortened: as §2

NRAS Q61R = NRAS Q61R (Homo sapiens (Human), UniProt P01111+P62937, Q61R); assay: Ras-Raf (BRAF RBD) disruption / FRET / MOA assay, NRAS Q61R; assay type: biochemical; conditions: NRAS Q61R; Ras-Raf disruption/FRET/MOA assay; read-out: IC50* NRAS Q61R FRET data
Sequence of NRAS Q61R (P01111 whole entry Q61R): as the sequence (P01111 whole entry Q61K) above, with K61R counted along it
Sequence of NRAS Q61R (P62937 whole entry): as the sequence (P62937 whole entry) above
Procedure, shortened: as §1

NRAS WT = NRAS WT (Homo sapiens (Human), UniProt P01111+P62937); assay: Ras-Raf (BRAF RBD) disruption / FRET / MOA assay, NRAS WT; assay type: biochemical; conditions: read-out: IC50* NRAS WT FRET data
Sequence of NRAS WT (P01111 whole entry): as the sequence (P01111 whole entry Q61K) above, with K61Q counted along it
Sequence of NRAS WT (P62937 whole entry): as the sequence (P62937 whole entry) above
Procedure, shortened: as §1

K-Ras G12C = K-Ras G12C (Homo sapiens (Human), UniProt P01116+P62937, G12C); assay: Ras-Raf (BRAF RBD) disruption / FRET / MOA assay, KRAS G12C; assay type: biochemical; conditions: KRAS G12C; Ras-Raf disruption/FRET/MOA assay; read-out: IC50* KRAS G12C FRET data
Sequence of K-Ras G12C (P01116-2 other isoform, or with tags, fused parts or gaps G12C): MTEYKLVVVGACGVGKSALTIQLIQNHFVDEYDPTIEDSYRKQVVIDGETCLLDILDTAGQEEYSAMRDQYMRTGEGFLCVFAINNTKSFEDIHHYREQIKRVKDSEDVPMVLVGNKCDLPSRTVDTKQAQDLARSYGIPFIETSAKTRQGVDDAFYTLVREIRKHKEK
Sequence of K-Ras G12C (P62937 whole entry): as the sequence (P62937 whole entry) above
Procedure, shortened: as §2

KRAS G12V = KRAS G12V (Homo sapiens (Human), UniProt P01116+P62937, G12V); assay: Ras-Raf (BRAF RBD) disruption / FRET / MOA assay, KRAS G12V; assay type: biochemical; conditions: read-out: IC50* KRAS G12V FRET data
Sequence of KRAS G12V (P01116-2 other isoform, or with tags, fused parts or gaps G12V): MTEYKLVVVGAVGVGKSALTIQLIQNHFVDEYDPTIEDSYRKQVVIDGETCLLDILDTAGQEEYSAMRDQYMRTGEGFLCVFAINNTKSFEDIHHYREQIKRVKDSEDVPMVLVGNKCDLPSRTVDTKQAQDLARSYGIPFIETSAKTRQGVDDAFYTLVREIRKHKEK
Sequence of KRAS G12V (P62937 whole entry): as the sequence (P62937 whole entry) above
Procedure, shortened: as §2

NRAS G12C = NRAS G12C (Homo sapiens (Human), UniProt P01111+P62937, G12C); assay: Ras-Raf (BRAF RBD) disruption / FRET / MOA assay, NRAS G12C; assay type: biochemical; conditions: read-out: IC50* NRAS G12C FRET data
Sequence of NRAS G12C (P01111 whole entry G12C): as the sequence (P01111 whole entry Q61K) above, with G12C, K61Q counted along it
Sequence of NRAS G12C (P62937 whole entry): as the sequence (P62937 whole entry) above
Procedure, shortened: as §2

NCI-H358 (K-Ras G12C) = assay: CellTiter-Glo cell viability assay, NCI-H358; assay type: cell-based, human; conditions: Homo sapiens, NCI-H358, 120 h, NCI-H358, 5-day treatment; class symbols; read-out: Additional H358 Cell Viability assay data (K-Ras G12C, IC50)
Procedure, shortened: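 Compounds were dispensed directly onto K-Ras mutant cells and incubated until day 5, then plates were equilibrated to room temperature for about 30 minutes before CellTiter-Glo luminescence. Signals were normalized as (sample/average DMSO)*100 and fitted by four-parameter logistic fit.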

K-Ras G13C = K-Ras G13C (Homo sapiens (Human), UniProt P01116+P62937, G13C); assay: Ras-Raf (BRAF RBD) disruption / FRET / MOA assay, KRAS G13C; assay type: biochemical; conditions: KRAS G13C; Ras-Raf disruption/FRET/MOA assay; read-out: IC50* KRAS G13C FRET data
Sequence of K-Ras G13C (P01116-2 other isoform, or with tags, fused parts or gaps G13C): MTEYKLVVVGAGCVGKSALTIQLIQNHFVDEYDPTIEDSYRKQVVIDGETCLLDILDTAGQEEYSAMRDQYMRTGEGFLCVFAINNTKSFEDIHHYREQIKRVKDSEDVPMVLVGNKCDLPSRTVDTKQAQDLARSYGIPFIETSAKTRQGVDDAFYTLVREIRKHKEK
Sequence of K-Ras G13C (P62937 whole entry): as the sequence (P62937 whole entry) above
Procedure, shortened: as §2

KRAS G12S = KRAS G12S (Homo sapiens (Human), UniProt P01116+P62937, G12S); assay: Ras-Raf (BRAF RBD) disruption / FRET / MOA assay, KRAS G12S; assay type: biochemical; conditions: Ras-Raf disruption/FRET/MOA assay; class symbols; read-out: KRAS G12S FRET data IC50
Sequence of KRAS G12S (P01116-2 other isoform, or with tags, fused parts or gaps G12S): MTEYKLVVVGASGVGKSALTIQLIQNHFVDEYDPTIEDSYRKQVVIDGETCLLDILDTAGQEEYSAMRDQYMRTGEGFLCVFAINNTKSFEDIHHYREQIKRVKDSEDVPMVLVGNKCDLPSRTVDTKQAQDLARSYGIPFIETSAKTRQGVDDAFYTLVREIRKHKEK
Sequence of KRAS G12S (P62937 whole entry): as the sequence (P62937 whole entry) above
Procedure, shortened: as §2

[1] = test system: NCI-H358 cells (K-Ras G12C); assay: Potency assay: pERK in NCI-H358 cells; assay type: cell-based, human; conditions: Homo sapiens, NCI-H358; H358 KRAS G12C; read-out: pERK EC50
Procedure, shortened: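 Inhibition of cellular pERK after a 4 h treatment, detected by AlphaLISA or In-Cell Western. IC50 from a four-parameter concentration-response fit.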

Sequence of KRAS Q61H (P01116-2 other isoform, or with tags, fused parts or gaps Q61H): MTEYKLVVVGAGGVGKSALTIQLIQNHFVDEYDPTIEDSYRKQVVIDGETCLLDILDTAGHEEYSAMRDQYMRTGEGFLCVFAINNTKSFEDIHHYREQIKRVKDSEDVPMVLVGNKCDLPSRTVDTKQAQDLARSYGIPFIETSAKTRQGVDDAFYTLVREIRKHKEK
Sequence of KRAS Q61H (P62937 whole entry): as the sequence (P62937 whole entry) above

IC50 (NCI-H358 (K-Ras G12C)) [nM]	Structure (SMILES)	IC50 (KRAS Q61H) [nM]	IC50 (NRAS Q61K) [nM]	IC50 (KRAS G12D) [nM]	IC50 (KRAS G13D) [nM]	IC50 (KRAS WT) [nM]	IC50 (NRAS Q61R) [nM]	IC50 (NRAS WT) [nM]	IC50 (K-Ras G12C) [nM]	IC50 (KRAS G12V) [nM]	IC50 (NRAS G12C) [nM]	IC50 (K-Ras G13C) [nM]	IC50 (KRAS G12S) [nM]	EC50 [1] [nM]
> 1000	C=CC(=O)N1CC[C@H](C(=O)N(C)[C@H](C(=O)N[C@H]2CC3=NN=C(S3)c3ccc4c(c3)c(c(-c3cccnc3[C@H](C)OC)n4CC)CC(C)(C)COC(=O)[C@@H]3CCCN(N3)C2=O)C(C)C)C1 (atropisomer, axis not shown) [Example A248]	> 10000	> 10000	> 10000	> 10000	> 10000	> 10000	> 10000	1000 to 10000	> 10000	1000 to 10000	> 10000	> 10000	
> 1000	C=CC(=O)N1CC[C@H](C(=O)N(C)[C@H](C(=O)NC2C[C@@H]3CN(CCO3)c3ccc4c(c3)c(c(-c3cccnc3[C@H](C)OC)n4CC)CC(C)(C)COC(=O)[C@@H]3CC(Br)CN(N3)C2=O)C(C)C)C1 (some centres unmarked) [Example A313]	> 10000	> 10000	> 10000	> 10000	> 10000	> 10000	> 10000	1000 to 10000	> 10000	1000 to 10000	> 10000	> 10000	
> 1000	C=CC(=O)N1CC[C@H](C(=O)N(C)[C@H](C(=O)N[C@H]2Cc3cc(O)cc(c3)-c3cc4c(c(-c5ccccc5CCOC)n(CC)c4cn3)CC(C)(C)COC(=O)[C@@H]3CCCN(N3)C2=O)C(C)C)C1 [Example A102]	1000 to 10000	> 10000	> 10000	> 10000	> 10000	> 10000	> 10000	1000 to 10000	> 10000	1000 to 10000	> 10000	> 10000	
100 to 1000	CC#CC(=O)N1CC[C@H](C(=O)N(C)[C@H](C(=O)N[C@H]2Cc3cccc(c3)-c3ccc4c(c3)c(c(-c3cccnc3[C@H](C)OC)n4C#N)CC(C)(C)COC(=O)[C@@H]3CCCN(N3)C2=O)C(C)C)C1 (atropisomer, axis not shown) [Example A304]	> 10000	> 10000	> 10000	> 10000	> 10000	> 10000	> 10000	> 10000	> 10000	> 10000	> 10000	> 10000	
	CO[C@@H](C)c1ncc(N2CCN(C)CC2)cc1-c1c2c3cc(ccc3n1CC(F)(F)F)-c1cccc(c1)C[C@H](NC(=O)[C@H](C(C)C)N(C)C(=O)C1(F)CCN(C(=O)C#CC(C)(C)N(C)C)CC1)C(=O)N1CCC[C@H](N1)C(=O)OCC(C)(C)C2 (atropisomer, axis not shown) [Example A542, 1-(4-(dimethylamino)-4-methylpent-2-ynoyl)-4-fluoro-N-((2S)-1-(((6^3S,4S)-1^2-(2-((S)-1-methoxyethyl)-5-(4-methylpiperazin-1-yl)pyridin-3-yl)-10,10-dimethyl-5,7-dioxo-1^1-(2,2,2-trifluoroethyl)-6^1,6^2,6^3,6^4,6^5,6^6-hexahydro-1^1H-8-oxa-1(5,3)-indola-6(1,3)-pyridazina-2(1,3)-benzenacycloundecaphane-4-yl)amino)-3-methyl-1-oxobutan-2-yl)-N-methylpiperidine-4-carboxamide]	10 to 100	10 to 100	100 to 1000	10 to 100	10 to 100	10 to 100	10 to 100	< 10	10 to 100	< 10	< 10	10 to 100	< 5000
	CO[C@@H](C)c1ncccc1-c1c2c3cc(ccc3n1CC(F)(F)F)-c1csc(n1)C[C@H](NC(=O)[C@H](C(C)C)N(C)C(=O)N1C[C@@H]3OCCN(C(=O)/C=C/CF)[C@@H]3C1)C(=O)N1CCC[C@H](N1)C(=O)OCC(C)(C)C2 (atropisomer, axis not shown) [Example A571]	100 to 1000	100 to 1000	1000 to 10000	1000 to 10000	100 to 1000	100 to 1000	100 to 1000	100 to 1000	100 to 1000	100 to 1000	10 to 100	100 to 1000	< 5000
	C=CC(=O)N1CCO[C@@H]2CCN(C(=O)N(C)[C@H](C(=O)N[C@H]3Cc4nc(cs4)-c4ccc5c(c4)c(c(-c4cccnc4[C@H](C)OC)n5CC)CC(C)(C)COC(=O)[C@@H]4CCCN(N4)C3=O)C(C)C)C[C@@H]21 (atropisomer, axis not shown) [Example A581]	100 to 1000	100 to 1000	1000 to 10000	100 to 1000	100 to 1000	100 to 1000	100 to 1000	10 to 100	100 to 1000	10 to 100	100 to 1000	100 to 1000	< 5000
	CO[C@@H](C)c1ncccc1-c1c2c3cc(ccc3n1CC(F)(F)F)-c1csc(n1)C[C@H](NC(=O)[C@H](C(C)C)N(C)C(=O)N1C[C@@H]3OCCN(C(=O)/C=C/CN(C)C)[C@@H]3C1)C(=O)N1CCC[C@H](N1)C(=O)OCC(C)(C)C2 (atropisomer, axis not shown) [Example A573]	100 to 1000	100 to 1000	1000 to 10000	100 to 1000	100 to 1000	100 to 1000	100 to 1000	10 to 100	1000 to 10000	10 to 100	10 to 100	100 to 1000	< 5000

Structure (SMILES)	IC50 (NCI-H358 (K-Ras G12C)) [nM]	IC50 (KRAS Q61H) [nM]	IC50 (NRAS Q61K) [nM]	IC50 (KRAS G12D) [nM]	IC50 (KRAS G13D) [nM]	IC50 (KRAS WT) [nM]	IC50 (NRAS Q61R) [nM]	IC50 (NRAS WT) [nM]	IC50 (K-Ras G12C) [nM]	IC50 (KRAS G12V) [nM]	IC50 (NRAS G12C) [nM]	IC50 (K-Ras G13C) [nM]	IC50 (KRAS G12S) [nM]	EC50 [1] [nM]
C=CC(=O)N1CC[C@H](C(=O)N(C)[C@H](C(=O)N[C@H]2Cc3cccc(c3)-c3ccc4c(c3)c(c(-c3cnn(C5CCN(C)CC5)c3[C@H](C)OC)n4CC)CC(C)(C)COC(=O)[C@@H]3CCCN(N3)C2=O)C(C)C)C1 [Example A482]	100 to 1000	> 10000	> 10000	> 10000	> 10000	> 10000	> 10000	> 10000	> 10000	> 10000	> 10000	> 10000	> 10000	
C=CC(=O)N1CC[C@H](C(=O)N(C)[C@H](C(=O)N[C@H]2Cc3cccc(c3)-c3ccc4c(c3)c(c(-c3cnn(C)c3CN(C)C)n4CC)CC(C)(C)COC(=O)[C@@H]3CCCN(N3)C2=O)C(C)C)C1 (relative stereo) [Example A329]	100 to 1000	> 10000	> 10000	> 10000	> 10000	> 10000	> 10000	> 10000	> 10000	> 10000	> 10000	> 10000	> 10000	
C=CC(=O)N(C)C(=O)N(C)[C@H](C(=O)N[C@H]1Cc2nc(cs2)-c2ccc3c(c2)c(c(-c2cccnc2[C@H](C)OC)n3CC)CC(C)(C)COC(=O)[C@@H]2CCCN(N2)C1=O)C(C)C (atropisomer, axis not shown) [Example A355]	100 to 1000	> 10000	> 10000	> 10000	> 10000	> 10000	> 10000	> 10000	> 10000	> 10000	> 10000	> 10000	> 10000	
